Assay results taken from patent US10729668B2, “Ketobutyrate compounds and compositions for treating age-related symptoms and diseases” (The Regents of the University of California, priority 2014, dated 2020).

Legend:
[1] = test system: NADH dehydrogenase (Complex I); experiment: NADH dehydrogenase (Complex I) driven coupling assay, isolated liver mitochondria (pyruvate and malate); type: biochemical, mouse; details: respiration driven by pyruvate and malate
Experimental: (§1) Animal studies were performed under approved UCLA animal research protocols. Mitochondria from 3-month-old C57BL/6 mice were isolated. Briefly, livers were extracted, minced at 4° C. in MSHE+BSA (70 mM sucrose, 210 mM mannitol, 5 mM HEPES, 1 mM EGTA, and 0.5% fatty acid free BSA, pH 7.2), and rinsed several times to remove blood. All subsequent steps were performed on ice or at 4° C. The tissue was disrupted in 10 volumes of MSHE+BSA with a glass Dounce homogenizer (5-6 strokes) and the homogenate was centrifuged at 800×g for 10 minutes to remove tissue debris and nuclei. The supernatant was decanted through a cell strainer and centrifuged at 8,000×g for 10 minutes. The dark mitochondrial pellet was resuspended in MSHE+BSA and re-centrifuged at 8,000×g for 10 minutes. The final mitochondrial pellet was resuspended in 30 μl of MAS buffer (70 mM sucrose, 220 mM mannitol, 10 mM KH2PO4, 5 mM MgCl2, 2 mM HEPES, 1 mM EGTA, and 0.2% fatty acid free BSA, pH 7.2). Isolated mitochondrial respiration was measured by running coupling and electron flow assays as described. […]
(§2) Mitochondrial respiration was measured by running coupling and electron flow assays. […]

Complex II = biological target: T1, Complex II (Mus musculus, UniProt Q8K2B3+Q9CQA3+Q9CXV1+Q9CZB0); experiment: Complex II driven coupling assay, isolated liver mitochondria (succinate and rotenone); type: biochemical; details: succinate supplemented
T1 construct: Mitochondria were isolated from mouse liver as described earlier; from tissue; host or cells: liver mitochondria of 3-month-old C57BL/6 mice
Experimental: as §1, §2

GMC101 C. elegans strain = experiment: Paralysis in C. elegans Alzheimer's disease model; type: in vivo, Caenorhabditis elegans; details: 4 mM, 30° C.
Experimental: Worms were age-synchronized by performing a timed egg lay for 3 hours with about 100 gravid adults and the eggs placed in a 20° C. incubator. Once the eggs had developed to the L4 stage at 42 hours post egg lay, they were picked onto NGM treatment plates containing 49.5 μM 5-fluoro-2′-deoxyuridine (FUDR, Sigma F0503) to prevent progeny production and either 4 mM α-KB or vehicle (water) control. The worms were then shifted to 30° C. to induce amyloid-beta aggregation and paralysis. […] Most paralyzed worms could still move their heads and part of their body. All worms were transferred to fresh treatment plates on Day 4.

Huh7.5 cells = experiment: MTT cytotoxicity assay; type: cell-based; details: 100 nM to 1 mM, up to 72 hours
Experimental: As subjects age, their susceptibility to infection increases. Therefore, to determine whether α-KB reduces ones susceptibility to age-related infection, Huh7.5 cells were infected with the Renilla reporter HCV for 5 hours and subsequently treated with 1 mM and 1 μM of α-KB. 72 hours post treatment, the cells were lysed and luciferase activity was measured. JG-98, which is a suppressor of viral assembly, was used as a positive control and water was used as a negative control. […] To ensure that the anti-viral activity of α-KB is not the result of cytotoxicity, Huh7.5 cells were treated with 1 mM, 100 μM, 10 μM, 1 μM, and 100 nM α-KB. MTT assays were performed every 24 hours up to 72 hours post treatment. Luteolin, an anti-cancer compound which is cytotoxic, was used as a positive control and water was used as a negative control.

[2] = test system: ETC Complex I diaphorase (NADH: acceptor oxidoreductase); experiment: Complex I Enzyme Activity Microplate Assay (diaphorase); type: biochemical, bovine; details: 200 and 800 μM
Experimental: To assess if α-KB can affect the diaphorase (NADH: acceptor oxidoreductase) activity of Complex I, the Complex I Enzyme Activity Microplate Assay Kit (Abcam, ab109721) was used. The assay was performed according to the protocol provided. Bovine Heart Mitochondria lysate (Abcam, ab110338) was added with detergent, followed by incubation on ice for 30 minutes to release Complex I and then centrifuged at 12,000 g, 4° C. for 20 minutes. Supernatant was collected and diluted with the buffer provided and then added to a Complex I antibody-coated 96-well plate. After a 3 hour incubation followed by 2× wash with stabilizer buffer, the wells were added with 200 μL of reaction mix containing 50, 200, or 800 μM α-KB or vehicle control (distilled water). Each condition was performed in triplicates. Kinetic measurements of absorbance at 450 nm with 1 minute intervals were taken, and Complex I diaphorase activity was calculated from the slope of the absorbance to time. The readings were normalized to vehicle mean (as 100 percent).

[3] = test system: nuo-6(qm200), daf-2(e1370), eat-2(ad1116) mutant C. elegans strains; experiment: Lifespan of long-lived mutant C. elegans strains; type: in vivo, Caenorhabditis elegans
From the text: The nuo-6 gene encodes the C. elegans ortholog of the NDUFB4/B15 subunit of the mitochondrial electron transport chain complex I, also known as the NADH dehydrogenase complex.

ATP synthase = ATP synthase inhibition

T1 sequence (Q8K2B3 43-664): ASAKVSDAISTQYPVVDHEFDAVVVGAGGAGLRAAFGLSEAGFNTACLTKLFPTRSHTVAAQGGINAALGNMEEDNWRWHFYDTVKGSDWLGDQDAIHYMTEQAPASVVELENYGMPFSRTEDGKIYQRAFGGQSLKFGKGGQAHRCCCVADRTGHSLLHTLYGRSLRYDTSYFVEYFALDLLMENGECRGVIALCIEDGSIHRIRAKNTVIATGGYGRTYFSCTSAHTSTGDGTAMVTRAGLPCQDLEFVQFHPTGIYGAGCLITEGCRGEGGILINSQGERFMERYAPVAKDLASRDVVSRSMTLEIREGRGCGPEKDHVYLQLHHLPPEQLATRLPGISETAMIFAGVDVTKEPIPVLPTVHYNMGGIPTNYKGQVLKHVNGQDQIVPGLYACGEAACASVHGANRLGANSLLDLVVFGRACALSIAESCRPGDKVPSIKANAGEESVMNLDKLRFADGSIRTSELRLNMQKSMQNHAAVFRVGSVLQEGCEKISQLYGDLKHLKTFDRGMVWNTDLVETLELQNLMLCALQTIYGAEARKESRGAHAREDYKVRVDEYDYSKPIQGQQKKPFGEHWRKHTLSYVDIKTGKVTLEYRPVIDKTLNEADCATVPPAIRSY
T1 sequence (Q9CQA3 31-282): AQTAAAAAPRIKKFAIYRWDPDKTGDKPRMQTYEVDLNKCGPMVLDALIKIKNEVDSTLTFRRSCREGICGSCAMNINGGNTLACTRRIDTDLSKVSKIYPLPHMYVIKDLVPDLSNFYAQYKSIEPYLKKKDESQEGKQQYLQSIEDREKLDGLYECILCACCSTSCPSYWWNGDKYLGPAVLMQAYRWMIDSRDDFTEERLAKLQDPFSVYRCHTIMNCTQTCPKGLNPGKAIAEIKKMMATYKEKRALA
T1 sequence (Q9CZB0 30-169): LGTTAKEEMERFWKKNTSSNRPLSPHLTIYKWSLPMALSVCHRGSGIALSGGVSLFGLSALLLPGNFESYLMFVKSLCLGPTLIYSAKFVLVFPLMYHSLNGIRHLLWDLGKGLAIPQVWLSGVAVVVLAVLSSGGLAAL
T1 sequence (Q9CXV1 57-159): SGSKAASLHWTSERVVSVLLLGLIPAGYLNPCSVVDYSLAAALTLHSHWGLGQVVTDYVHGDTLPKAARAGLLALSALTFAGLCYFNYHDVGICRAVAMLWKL

In the case of `CCC(=O)C(=O)O` [α-KB, α-ketobutyrate], the “ADP-induced and FCCP-induced respiration” value [1] is reported as “significant decrease”, the “mitochondrial respiration, Complex II-driven coupling” value (Complex II) is reported as “no effect” and the “delay of paralysis compared to vehicle treated worms” value (GMC101 C. elegans strain) is reported as “up to 37%”. For the same compound, the “cytotoxicity (MTT)” value (Huh7.5 cells) was “not cytotoxic”, the “Complex I diaphorase activity” value [2] was “directly inhibits” and the “lifespan of daf-2(e1370) strain” value ([3]; daf-2(e1370)) was “does extend the lifespan”. For the same compound, the “lifespan of eat-2(ad1116) strain” value ([3]; eat-2(ad1116)) was “does extend the lifespan”, the “lifespan of nuo-6(qm200) strain” value ([3]; nuo-6(qm200)) was “inability of α-KB to extend the lifespan” and the “inhibition of ATP synthase” value (ATP synthase) was “does not inhibit”.
